Experimental findings from ChEMBL document CHEMBL1201862, “PubChem BioAssay data set” (2004) are described below.

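Following 48 hours of exposure in 96-well plates, responses at five concentrations were used to interpolate endpoints linearly. Here, GI50 denotes the concentration required for 50% inhibition of growth.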 Active and inactive are the calls of the source. Rule as the data show it: active = GI50 up to about 1.1 µM and inactive = higher.

Some test systems named below: T47D; RPMI-8226; SF-268; SNB-75; A549; OVCAR-5; Hs-578T; 786-0; MDA-MB-231; SK-MEL-5; K562; SR; EKVX; HOP-92; TK-10; IGROV-1; SK-MEL-28; HCC 2998; Malme-3M; NCI-H226.
Common to all, as to assay: NCI anticancer screen, dose series, 48 h

For the compound `O=C(Cn1nnc(-c2ccccc2)n1)N/N=C/c1cn(Cc2ccc(Cl)cc2Cl)c2ccccc12`, the GI50 in the assay on T47D is 47.2 µM (inactive); in the assay on RPMI-8226, > 100 µM (inactive); in the assay with SF-268, 31.8 µM (inactive); in the assay with SNB-75 it was 45.1 µM (inactive); in the assay with A549 it was 51.5 µM (inactive); in the assay on OVCAR-5, > 100 µM (inactive). The GI50 is > 100 µM (inactive) in the assay on Hs-578T; 36.9 µM (inactive) in the assay with 786-0; > 100 µM (inactive) with MDA-MB-231; > 100 µM (inactive) in the assay with SK-MEL-5; > 100 µM (inactive) in the assay on K562; 63.1 µM (inactive) with SR. Moreover, the GI50 was 44.5 µM (inactive) in the assay with EKVX, > 100 µM (inactive) in the assay with HOP-92, > 100 µM (inactive) with TK-10 and > 100 µM (inactive) in the assay with IGROV-1.

As for `COc1cc2c(cc1O)C1CC(CC3CCCCN31)OC(=O)/C=C\c1ccc(O)c-2c1` (centres undefined), the GI50 with T47D was 18.5 µM (inactive); in the assay on RPMI-8226, 27 µM (inactive); with SF-268, 24.9 µM (inactive); in the assay on SNB-75, 10.2 µM (inactive); in the assay on A549, 57 µM (inactive); in the assay on SK-MEL-28, 28.3 µM (inactive). The GI50 was 18.2 µM (inactive) in the assay on HCC 2998; 58.3 µM (inactive) in the assay with OVCAR-5; 18.3 µM (inactive) in the assay on Hs-578T; 32.4 µM (inactive) in the assay on 786-0; 24.3 µM (inactive) in the assay on MDA-MB-231; 16.8 µM (inactive) in the assay with SK-MEL-5. Besides, the GI50 in the assay on K562 was 28 µM (inactive); in the assay with Malme-3M, 19.5 µM (inactive); in the assay with NCI-H226, 41.4 µM (inactive); with EKVX, 41.6 µM (inactive); with HOP-92, 15.5 µM (inactive); in the assay with TK-10 it was 26.4 µM (inactive). In addition, in the assay with IGROV-1, the GI50 was 24.7 µM (inactive).

Take `CO[C@H]1C=C[C@]23c4cc5c(cc4CN(CC2O)[C@@H]3C1)OCO5` (some centres undefined): the GI50 is 1.56 µM (inactive) in the assay on T47D; 2.82 µM (inactive) in the assay on RPMI-8226; 2.17 µM (inactive) in the assay on SF-268; 2.36 µM (inactive) in the assay on SNB-75; 3.2 µM (inactive) in the assay with A549; 2.17 µM (inactive) with SK-MEL-28. Also, the GI50 is 2.58 µM (inactive) in the assay on HCC 2998; 5.47 µM (inactive) in the assay with OVCAR-5; 2.97 µM (inactive) in the assay on Hs-578T; 1.91 µM (inactive) with 786-0; 2.67 µM (inactive) in the assay on MDA-MB-231; 2.29 µM (inactive) in the assay with SK-MEL-5. The GI50 in the assay with K562 is 2.04 µM (inactive); in the assay on Malme-3M, 2.15 µM (inactive); with NCI-H226 it was 6.9 µM (inactive); with EKVX it was 3.57 µM (inactive); with HOP-92, 0.336 µM (active); in the assay on TK-10 it was 3.18 µM (inactive). The GI50 in the assay with IGROV-1 is 1.37 µM (inactive).

Regarding `CC1(CC(=O)O)OC2CCCCCC2O1.NCc1ccccc1` (centres undefined), the GI50 in the assay on T47D is 92.9 µM (inactive); in the assay on RPMI-8226, 31.9 µM (inactive); with SF-268, > 100 µM (inactive); in the assay on SNB-75, 99.3 µM (inactive); in the assay with A549, > 100 µM (inactive); in the assay on SK-MEL-28 it was > 100 µM (inactive). Also, the GI50 in the assay with OVCAR-5 is > 100 µM (inactive); with Hs-578T, > 100 µM (inactive); in the assay on 786-0, > 100 µM (inactive); in the assay with MDA-MB-231 it was > 100 µM (inactive); in the assay on SK-MEL-5 it was 88.1 µM (inactive); in the assay with K562 it was 57.8 µM (inactive). Besides, the GI50 in the assay on Malme-3M was > 100 µM (inactive); in the assay on SR it was > 100 µM (inactive); in the assay with NCI-H226, > 100 µM (inactive); in the assay on EKVX, 20.2 µM (inactive); in the assay on HOP-92 it was 51.4 µM (inactive); in the assay with TK-10, > 100 µM (inactive). In addition, the GI50 in the assay with IGROV-1 was > 100 µM (inactive).

With `Cc1[nH]c2ncn(/N=C/c3ccccc3)c(=N)c2c1Cc1ccccc1`, the GI50 with T47D, with RPMI-8226, in the assay on SF-268, in the assay with SNB-75, in the assay on A549 and with SK-MEL-28 was > 100 µM (inactive) each time. The GI50 was 83.9 µM (inactive) in the assay with HCC 2998; > 100 µM (inactive) in the assay with OVCAR-5; > 100 µM (inactive) in the assay on Hs-578T; > 100 µM (inactive) in the assay with 786-0; 58.1 µM (inactive) in the assay on MDA-MB-231; > 100 µM (inactive) in the assay on K562. Also, the GI50 with NCI-H226 is 95.5 µM (inactive); with EKVX, 69.8 µM (inactive); in the assay with HOP-92, 42.4 µM (inactive); in the assay with TK-10, > 100 µM (inactive); in the assay with IGROV-1, > 100 µM (inactive).

On to `C#CCOC(=O)C(N)CCSC` (centres undefined), for which the GI50 in the assay on T47D, with RPMI-8226, in the assay with SF-268, in the assay on SNB-75, with A549 and in the assay on SK-MEL-28 was > 100 µM (inactive) each time. Further, the GI50 in the assay on OVCAR-5, in the assay with Hs-578T, in the assay on 786-0, in the assay on MDA-MB-231, with SK-MEL-5 and in the assay with Malme-3M was > 100 µM (inactive) throughout. Besides, the GI50 in the assay with SR, with NCI-H226, in the assay on EKVX, with HOP-92, in the assay with TK-10 and with IGROV-1 was > 100 µM (inactive) throughout.

For the compound `N#Cc1c(-c2cccc(Cl)c2)cc(-c2ccc(Cl)cc2)nc1N`, the GI50 was 27 µM (inactive) in the assay on T47D; 18.1 µM (inactive) with RPMI-8226; 18.5 µM (inactive) in the assay with SF-268; 17.5 µM (inactive) with A549; 21.7 µM (inactive) with OVCAR-5; 21.1 µM (inactive) with Hs-578T. For the same compound, the GI50 in the assay with 786-0 is 17 µM (inactive); in the assay with MDA-MB-231, 16.1 µM (inactive); in the assay on SK-MEL-5, 16.1 µM (inactive); in the assay on K562 it was 34.4 µM (inactive); in the assay with Malme-3M, 28.1 µM (inactive); in the assay with SR, 15.3 µM (inactive). The GI50 in the assay with NCI-H226 is 16.3 µM (inactive); in the assay on EKVX, 15.6 µM (inactive); in the assay with HOP-92, 10.9 µM (inactive); with TK-10, 19.7 µM (inactive); with IGROV-1, 10.1 µM (inactive).

In the case of `Cn1c(=O)c2c(nc3sc4ncccc4c(=O)n32)n(C)c1=O`, the GI50 with T47D, in the assay on RPMI-8226, in the assay with SF-268, in the assay on SNB-75, with SK-MEL-28 and with HCC 2998 was > 100 µM (inactive) in each case. Also, the GI50 with OVCAR-5, in the assay with Hs-578T, in the assay on 786-0, in the assay on MDA-MB-231, in the assay with SK-MEL-5 and in the assay with NCI-H226 was > 100 µM (inactive) each time. In addition, the GI50 with EKVX, in the assay on HOP-92, in the assay with TK-10 and in the assay with IGROV-1 was > 100 µM (inactive) throughout.

Consider `Nc1n[n+]([O-])c2cnccc2[n+]1[O-]`, for which the GI50 is 59.7 µM (inactive) in the assay with T47D; > 100 µM (inactive) with RPMI-8226; 93.8 µM (inactive) in the assay with SF-268; > 100 µM (inactive) with SNB-75; 33.9 µM (inactive) in the assay with A549; 82.4 µM (inactive) in the assay on SK-MEL-28. Besides, the GI50 in the assay on HCC 2998 was > 100 µM (inactive); in the assay on OVCAR-5 it was 52 µM (inactive); in the assay on Hs-578T, > 100 µM (inactive); in the assay with 786-0, 70.6 µM (inactive); in the assay on MDA-MB-231 it was 42.9 µM (inactive); in the assay on SK-MEL-5, 16.4 µM (inactive). Moreover, the GI50 was > 10 µM (inactive) with Malme-3M; 54.7 µM (inactive) with SR; > 100 µM (inactive) with NCI-H226; > 100 µM (inactive) in the assay on TK-10; 37.2 µM (inactive) with IGROV-1.

As for `Cc1c(C)c(C)c(CSC(=N)N)c(C)c1C`, the GI50 was 14.6 µM (inactive) with T47D; 12.6 µM (inactive) in the assay on RPMI-8226; 18.3 µM (inactive) in the assay with SF-268; 15.6 µM (inactive) in the assay with SNB-75; 17.2 µM (inactive) with A549; 15.4 µM (inactive) with SK-MEL-28. Moreover, the GI50 in the assay with HCC 2998 was 14.7 µM (inactive); in the assay on OVCAR-5, 14.5 µM (inactive); in the assay with Hs-578T, 15.6 µM (inactive); in the assay on 786-0 it was 15.9 µM (inactive); with MDA-MB-231 it was 14.1 µM (inactive); in the assay with SK-MEL-5, 13.7 µM (inactive). For the same compound, the GI50 in the assay on K562 is 12.2 µM (inactive); in the assay on Malme-3M, 15.9 µM (inactive); in the assay with NCI-H226, 13.6 µM (inactive); in the assay with EKVX, 14.8 µM (inactive); in the assay on HOP-92, 14 µM (inactive); in the assay on TK-10, 14.8 µM (inactive). The GI50 in the assay on IGROV-1 was 33.6 µM (inactive).

Consider `CCOC(=O)c1nnc2c(C#N)c(-c3ccccc3)c(C)n2c1N`, for which the GI50 in the assay on T47D was 53.7 µM (inactive); in the assay on RPMI-8226, 22.7 µM (inactive); in the assay on SF-268 it was 37.7 µM (inactive); with A549 it was 39.9 µM (inactive); in the assay on SK-MEL-28 it was 21.6 µM (inactive); in the assay with HCC 2998, 32.5 µM (inactive). For the same compound, the GI50 with OVCAR-5 was > 100 µM (inactive); in the assay with Hs-578T it was 24.6 µM (inactive); with 786-0, 56.1 µM (inactive); in the assay on MDA-MB-231, 51.8 µM (inactive); with SK-MEL-5, 39.9 µM (inactive); with K562, 31.8 µM (inactive). For the same compound, the GI50 with Malme-3M is 20.7 µM (inactive); in the assay with SR, 36.1 µM (inactive); in the assay with EKVX, 38 µM (inactive); in the assay with TK-10, 37 µM (inactive); in the assay with IGROV-1, 22.2 µM (inactive).
